Where “and” joins values, the source holds several entries; their conditions need not be identical. Equal entries are not always repeated. Each block holds one compound with its values, some of them ahead of it.
Legend:
[1] = Solubility studies in water at 2 hours; format: physicochemical
[2] = Pharmacokinetic study: plasma concentration and plasma PK parameters after IV/PO dosing (LC-MS/MS, WinNonlin); format: in vivo, Male SD Rat; conditions: for AUCInf / AUClast / AUClast/D / AUC—% Extrap_obs / Cmax / MRTInf_obs / T1/2 / Tmax / AUCInf, Mean / AUClast, Mean / AUClast/D, Mean / AUC—% Extrap_obs, Mean / Cmax, Mean / MRTInf_obs, Mean / T1/2, Mean / Tmax, Mean: plasma
From the text: Pharmacokinetic and Brain Penetration Study
Dose formulation processing during dosing: The dose formulations will be kept at room temperature.
Concentrations of Test Article in the plasma samples will be analyzed using a LC-MS/MS method.
WinNonlin (Phoenix™, version 6.1) or other similar software will be used for pharmacokinetic calculations. The following pharmacokinetic parameters will be calculated, whenever possible from the plasma concentration versus time data:
IV administration: T1/2, C0, AUClast, AUCinf, MRTinf, Cl, Vss, Number of Points for Regression.
PO administration: T1/2, Cmax, Tmax, MRTinf, AUCinf, AUClast, F %, Number of Points for Regression.
The pharmacokinetic data will be described using descriptive statistics such as mean, standard deviation.

[3] = male SD rat, PO 10 mg/kg (equal to freebase), individual rats, vehicle 20% HP-β-CD in water (POA, freebase) or water (salts), 10 mg/kg
[4] = male SD rat, PO 10 mg/kg (equal to freebase), mean n=3, vehicle 20% HP-β-CD in water (POA, freebase) or water (salts)
[5] = PO (group POF), 10 mg/kg, individual rats R49, R50, R51, 10 mg/kg
[6] = PO (group POF), 10 mg/kg, mean of R49-R51

solubility in water [1]: approximately 20 mg/mL | F ([2]; male SD rat, PO 10 mg/kg (equal to freebase) vs IV 3 mg/kg freebase, individual rats, vehicle 20% HP-β-CD in water (POA, freebase) or water (salts)): 39.9% and 42.6% and 38.1% | F, Mean ([2]; male SD rat, PO 10 mg/kg (equal to freebase) vs IV 3 mg/kg freebase, mean n=3, vehicle 20% HP-β-CD in water (POA, freebase) or water (salts)): 40.2% | concentration in plasma ([2]; male SD rat, PO 10 mg/kg (equal to freebase), 0.25 h, individual rats, vehicle 20% HP-β-CD in water (POA, freebase) or water (salts), 10 mg/kg): 227 ng/mL and 253 ng/mL and 256 ng/mL | concentration in plasma, Mean ([2]; male SD rat, PO 10 mg/kg (equal to freebase), 0.25 h, mean n=3, vehicle 20% HP-β-CD in water (POA, freebase) or water (salts)): 245 ng/mL | concentration in plasma ([2]; male SD rat, PO 10 mg/kg (equal to freebase), 0.5 h, individual rats, vehicle 20% HP-β-CD in water (POA, freebase) or water (salts), 10 mg/kg): 192 ng/mL and 233 ng/mL and 338 ng/mL | concentration in plasma, Mean ([2]; male SD rat, PO 10 mg/kg (equal to freebase), 0.5 h, mean n=3, vehicle 20% HP-β-CD in water (POA, freebase) or water (salts)): 254 ng/mL | concentration in plasma ([2]; male SD rat, PO 10 mg/kg (equal to freebase), 1 h, individual rats, vehicle 20% HP-β-CD in water (POA, freebase) or water (salts), 10 mg/kg): 162 ng/mL and 197 ng/mL and 208 ng/mL | concentration in plasma, Mean ([2]; male SD rat, PO 10 mg/kg (equal to freebase), 1 h, mean n=3, vehicle 20% HP-β-CD in water (POA, freebase) or water (salts)): 189 ng/mL | concentration in plasma ([2]; male SD rat, PO 10 mg/kg (equal to freebase), 2 h, individual rats, vehicle 20% HP-β-CD in water (POA, freebase) or water (salts), 10 mg/kg): 211 ng/mL and 180 ng/mL and 271 ng/mL | concentration in plasma, Mean ([2]; male SD rat, PO 10 mg/kg (equal to freebase), 2 h, mean n=3, vehicle 20% HP-β-CD in water (POA, freebase) or water (salts)): 221 ng/mL | concentration in plasma ([2]; male SD rat, PO 10 mg/kg (equal to freebase), 4 h, individual rats, vehicle 20% HP-β-CD in water (POA, freebase) or water (salts), 10 mg/kg): 208 ng/mL and 155 ng/mL and 122 ng/mL | concentration in plasma, Mean ([2]; male SD rat, PO 10 mg/kg (equal to freebase), 4 h, mean n=3, vehicle 20% HP-β-CD in water (POA, freebase) or water (salts)): 162 ng/mL | concentration in plasma ([2]; male SD rat, PO 10 mg/kg (equal to freebase), 8 h, individual rats, vehicle 20% HP-β-CD in water (POA, freebase) or water (salts), 10 mg/kg): 70.3 ng/mL and 40.7 ng/mL and 35.2 ng/mL | concentration in plasma, Mean ([2]; male SD rat, PO 10 mg/kg (equal to freebase), 8 h, mean n=3, vehicle 20% HP-β-CD in water (POA, freebase) or water (salts)): 48.7 ng/mL | AUClast/D [2, 3]: 133 kg·ng·h/mL/mg and 144 kg·ng·h/mL/mg and 119 kg·ng·h/mL/mg | AUC—% Extrap_obs [2, 3]: 21.2% and 0.109% and 8.09% | Cmax [2, 3]: 227 ng/mL and 253 ng/mL and 338 ng/mL | MRTInf_obs [2, 3]: 5.40 h and 4.15 h and 3.26 h | T1/2 [2, 3]: 3.54 h and 2.40 h and 2.06 h | Tmax [2, 3]: 0.25 h (2×) and 0.5 h | AUCInf, Mean [2, 4]: 1477 ng·h/mL | AUClast, Mean [2, 4]: 1322 ng·h/mL | AUClast/D, Mean [2, 4]: 132 kg·ng·h/mL/mg | AUC—% Extrap_obs, Mean [2, 4]: 9.82% | Cmax, Mean [2, 4]: 273 ng/mL | MRTInf_obs, Mean [2, 4]: 4.27 h | T1/2, Mean [2, 4]: 2.67 h | Tmax, Mean [2, 4]: 0.333 h
SMILES: COc1cc2c(cc1OC)C1Cc3ccc(O)c(OC)c3CN1CC2.CS(=O)(=O)O (stereo not drawn) [TLZ-16 mesylate]
concentration in plasma ([2]; male SD rat, PO 10 mg/kg (equal to freebase), 0 h, individual rats, vehicle 20% HP-β-CD in water (POA, freebase) or water (salts)): BLOQ (BLOQ = below limit of quantitation (0.2 ng/mL)) | concentration in plasma ([2]; male SD rat, PO 10 mg/kg (equal to freebase), 24 h, individual rats, vehicle 20% HP-β-CD in water (POA, freebase) or water (salts), 10 mg/kg): BLOQ (BLOQ = below limit of quantitation (0.2 ng/mL)) (2×) and 0.454 ng/mL | AUCInf [2, 3]: 1690 ng·h/mL and 1446 ng·h/mL and 1294 ng·h/mL | AUClast [2, 3]: 1331 ng·h/mL and 1444 ng·h/mL and 1190 ng·h/mL

SMILES: COc1cc2c(cc1OC)[C@@H]1Cc3ccc(O)c(OC)c3CN1CC2.O=S(=O)(O)O [TLZ-16 sulfate]
solubility in water [1]: approximately 20 mg/mL | F [2, 5]: 24.8% and 31.7% and 44.5% | F, Mean [2, 6]: 33.7% | concentration in plasma, Conc. ([2]; PO (group POF), 10 mg/kg, time 0 h, individual rats R49, R50, R51): BLOQ (BLOQ = below limit of quantitation (0.2 ng/mL)) | concentration in plasma, Conc. ([2]; PO (group POF), 10 mg/kg, time 0.25 h, individual rats R49, R50, R51, 10 mg/kg): 231 ng/mL and 226 ng/mL and 349 ng/mL | concentration in plasma, Mean ([2]; PO (group POF), 10 mg/kg, time 0.25 h, mean of R49-R51): 269 ng/mL | concentration in plasma, Conc. ([2]; PO (group POF), 10 mg/kg, time 0.5 h, individual rats R49, R50, R51, 10 mg/kg): 229 ng/mL and 223 ng/mL and 401 ng/mL | concentration in plasma, Mean ([2]; PO (group POF), 10 mg/kg, time 0.5 h, mean of R49-R51): 284 ng/mL | concentration in plasma, Conc. ([2]; PO (group POF), 10 mg/kg, time 1 h, individual rats R49, R50, R51, 10 mg/kg): 117 ng/mL and 161 ng/mL and 240 ng/mL | concentration in plasma, Mean ([2]; PO (group POF), 10 mg/kg, time 1 h, mean of R49-R51): 173 ng/mL | concentration in plasma, Conc. ([2]; PO (group POF), 10 mg/kg, time 2 h, individual rats R49, R50, R51, 10 mg/kg): 119 ng/mL and 152 ng/mL and 189 ng/mL | concentration in plasma, Mean ([2]; PO (group POF), 10 mg/kg, time 2 h, mean of R49-R51): 153 ng/mL | concentration in plasma, Conc. ([2]; PO (group POF), 10 mg/kg, time 4 h, individual rats R49, R50, R51, 10 mg/kg): 103 ng/mL and 110 ng/mL and 203 ng/mL | concentration in plasma, Mean ([2]; PO (group POF), 10 mg/kg, time 4 h, mean of R49-R51): 139 ng/mL | concentration in plasma, Conc. ([2]; PO (group POF), 10 mg/kg, time 8 h, individual rats R49, R50, R51, 10 mg/kg): 22.4 ng/mL and 39.9 ng/mL and 87.8 ng/mL | concentration in plasma, Mean ([2]; PO (group POF), 10 mg/kg, time 8 h, mean of R49-R51): 50.0 ng/mL | concentration in plasma, Conc. ([2]; PO (group POF), 10 mg/kg, time 24 h, individual rats R49, R50, R51): BLOQ (BLOQ = below limit of quantitation (0.2 ng/mL)) | AUCInf [2, 5]: 840 ng·h/mL and 1074 ng·h/mL and 2115 ng·h/mL | AUClast [2, 5]: 764 ng·h/mL and 899 ng·h/mL and 1486 ng·h/mL | AUClast/D [2, 5]: 76.4 kg·ng·h/mL/mg and 89.9 kg·ng·h/mL/mg and 149 kg·ng·h/mL/mg | AUC—% Extrap_obs [2, 5]: 9.10% and 16.3% and 29.8% | Cmax [2, 5]: 231 ng/mL and 226 ng/mL and 401 ng/mL | MRTInf_obs [2, 5]: 3.53 h and 4.44 h and 6.73 h | T1/2 [2, 5]: 2.37 h and 3.05 h and 4.97 h | Tmax [2, 5]: 0.25 h (2×) and 0.5 h | AUCInf, Mean [2, 6]: 1343 ng·h/mL | AUClast, Mean [2, 6]: 1049 ng·h/mL | AUClast/D, Mean [2, 6]: 105 kg·ng·h/mL/mg | AUC—% Extrap_obs, Mean [2, 6]: 18.4% | Cmax, Mean [2, 6]: 286 ng/mL | MRTInf_obs, Mean [2, 6]: 4.90 h | T1/2, Mean [2, 6]: 3.46 h | Tmax, Mean [2, 6]: 0.333 h

Source: patent publication US11236081B2, “Crystalline salts of corydalmine” (priority 2018, dated 2022)
